Test results: the kinase profiling compilation of Christmann-Franck et al. (2016)
Where “and” joins values, the source holds several entries; their conditions need not be identical. Identical values can stand only once. Values belong to the compound of their own block, whether it stands above or below them.

Experiments:
Assay in all cases: Caliper, Mobility shift assay off-chip
[1] = molecular target: MAPKAPK5 (human) (UniProt Q8IW41)
[2] = molecular target: MARK4 (human) (UniProt Q96L34)
[3] = molecular target: PDK2 (human) (UniProt Q15119)
[4] = molecular target: SIK2 (human) (UniProt Q9H0K1)
[5] = molecular target: ITK (human) (UniProt Q08881)
[6] = molecular target: STK24 (human) (UniProt Q9Y6E0)
[7] = molecular target: NUAK1 (human) (UniProt O60285)
[8] = molecular target: SIK1 (human) (UniProt P57059)
[9] = molecular target: DDR1 (human) (UniProt Q08345)
[10] = molecular target: NTRK3 (human) (UniProt Q16288)
[11] = molecular target: PIM1 (human) (UniProt P11309)
[12] = molecular target: CIT (human) (UniProt O14578)
[13] = molecular target: PAK1 (human) (UniProt Q13153)
[14] = molecular target: MUSK (human) (UniProt O15146)
[15] = molecular target: ERBB4 (human) (UniProt Q15303)
[16] = molecular target: MAPK1 (human) (UniProt P28482)
[17] = molecular target: PRKG2 (human) (UniProt Q13237)
[18] = molecular target: STK4 (human) (UniProt Q13043)
[19] = molecular target: CDC42BPA (human) (UniProt Q5VT25)
[20] = molecular target: EPHA8 (human) (UniProt P29322)
[21] = molecular target: IRAK4 (human) (UniProt Q9NWZ3)
[22] = molecular target: CLK1 (human) (UniProt P49759)
[23] = molecular target: PRKACG (human) (UniProt P22612)
[24] = molecular target: LYN (human) (UniProt P07948)
[25] = molecular target: PAK2 (human) (UniProt Q13177)
[26] = molecular target: KIT (human) (UniProt P10721)
[27] = molecular target: STK10 (human) (UniProt O94804)
[28] = molecular target: PRKACB (human) (UniProt P22694)
[29] = molecular target: EPHB1 (human) (UniProt P54762)
[30] = molecular target: GSK3A (human) (UniProt P49840)
[31] = molecular target: STK3 (human) (UniProt Q13188)
[32] = molecular target: CDC7 (human) (UniProt O00311)
[33] = molecular target: EEF2K (human) (UniProt O00418)
[34] = molecular target: FLT4 (human) (UniProt P35916)

Chain of PAK1 (human) (Q13153 whole entry, looked up): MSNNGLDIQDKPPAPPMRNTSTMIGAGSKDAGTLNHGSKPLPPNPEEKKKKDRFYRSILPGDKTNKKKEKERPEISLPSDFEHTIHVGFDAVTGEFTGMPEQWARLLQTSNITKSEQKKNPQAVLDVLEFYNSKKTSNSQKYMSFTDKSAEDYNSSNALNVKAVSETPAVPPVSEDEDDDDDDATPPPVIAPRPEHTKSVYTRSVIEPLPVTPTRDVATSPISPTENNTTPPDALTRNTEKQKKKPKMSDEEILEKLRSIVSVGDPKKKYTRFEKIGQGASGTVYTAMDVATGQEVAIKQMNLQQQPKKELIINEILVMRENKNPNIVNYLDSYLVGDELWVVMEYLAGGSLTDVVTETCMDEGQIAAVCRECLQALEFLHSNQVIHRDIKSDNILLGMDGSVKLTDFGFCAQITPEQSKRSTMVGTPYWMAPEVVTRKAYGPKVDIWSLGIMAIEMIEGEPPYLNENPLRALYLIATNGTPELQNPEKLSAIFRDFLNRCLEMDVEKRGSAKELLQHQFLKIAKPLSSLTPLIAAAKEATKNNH
Chain of SIK1 (human) (P57059 whole entry, looked up): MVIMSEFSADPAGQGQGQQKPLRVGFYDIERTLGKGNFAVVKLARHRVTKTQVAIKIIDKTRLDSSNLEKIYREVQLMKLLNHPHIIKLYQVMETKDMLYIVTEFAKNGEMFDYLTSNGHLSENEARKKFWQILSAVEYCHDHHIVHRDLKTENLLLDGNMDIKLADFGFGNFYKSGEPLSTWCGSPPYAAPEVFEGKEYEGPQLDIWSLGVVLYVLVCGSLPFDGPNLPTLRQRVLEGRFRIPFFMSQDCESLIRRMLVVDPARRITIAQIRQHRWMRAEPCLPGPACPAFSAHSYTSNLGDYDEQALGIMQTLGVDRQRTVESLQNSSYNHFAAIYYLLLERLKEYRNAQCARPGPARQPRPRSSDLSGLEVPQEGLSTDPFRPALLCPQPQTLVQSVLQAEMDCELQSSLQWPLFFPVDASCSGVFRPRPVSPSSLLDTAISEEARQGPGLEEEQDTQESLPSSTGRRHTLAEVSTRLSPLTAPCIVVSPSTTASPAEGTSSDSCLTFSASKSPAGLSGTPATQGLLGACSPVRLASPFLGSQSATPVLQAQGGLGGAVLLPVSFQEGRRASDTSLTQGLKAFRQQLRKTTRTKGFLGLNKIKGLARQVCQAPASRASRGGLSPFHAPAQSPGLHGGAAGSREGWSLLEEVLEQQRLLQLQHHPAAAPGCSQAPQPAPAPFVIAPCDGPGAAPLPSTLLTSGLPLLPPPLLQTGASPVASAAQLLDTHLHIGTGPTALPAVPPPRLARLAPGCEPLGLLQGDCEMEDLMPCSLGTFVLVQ
Chain of NUAK1 (human) (O60285 whole entry, looked up): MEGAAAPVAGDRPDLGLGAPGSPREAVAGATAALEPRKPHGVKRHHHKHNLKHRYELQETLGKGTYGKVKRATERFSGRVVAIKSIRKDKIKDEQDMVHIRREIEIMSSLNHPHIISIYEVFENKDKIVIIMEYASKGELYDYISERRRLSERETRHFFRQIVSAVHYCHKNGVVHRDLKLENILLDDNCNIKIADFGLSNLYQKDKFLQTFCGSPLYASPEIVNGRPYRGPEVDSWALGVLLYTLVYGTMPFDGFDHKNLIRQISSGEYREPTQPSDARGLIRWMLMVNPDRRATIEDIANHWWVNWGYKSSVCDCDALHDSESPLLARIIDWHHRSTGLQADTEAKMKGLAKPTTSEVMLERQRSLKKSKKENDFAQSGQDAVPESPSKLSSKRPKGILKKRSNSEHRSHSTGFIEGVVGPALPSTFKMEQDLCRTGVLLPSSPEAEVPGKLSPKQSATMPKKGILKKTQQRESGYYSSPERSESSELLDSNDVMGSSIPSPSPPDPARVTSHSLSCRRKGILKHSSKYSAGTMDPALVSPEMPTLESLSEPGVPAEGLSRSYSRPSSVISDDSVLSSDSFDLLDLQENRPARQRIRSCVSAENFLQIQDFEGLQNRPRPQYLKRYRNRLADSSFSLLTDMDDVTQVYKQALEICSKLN
Chain of LYN (human) (P07948 whole entry, looked up): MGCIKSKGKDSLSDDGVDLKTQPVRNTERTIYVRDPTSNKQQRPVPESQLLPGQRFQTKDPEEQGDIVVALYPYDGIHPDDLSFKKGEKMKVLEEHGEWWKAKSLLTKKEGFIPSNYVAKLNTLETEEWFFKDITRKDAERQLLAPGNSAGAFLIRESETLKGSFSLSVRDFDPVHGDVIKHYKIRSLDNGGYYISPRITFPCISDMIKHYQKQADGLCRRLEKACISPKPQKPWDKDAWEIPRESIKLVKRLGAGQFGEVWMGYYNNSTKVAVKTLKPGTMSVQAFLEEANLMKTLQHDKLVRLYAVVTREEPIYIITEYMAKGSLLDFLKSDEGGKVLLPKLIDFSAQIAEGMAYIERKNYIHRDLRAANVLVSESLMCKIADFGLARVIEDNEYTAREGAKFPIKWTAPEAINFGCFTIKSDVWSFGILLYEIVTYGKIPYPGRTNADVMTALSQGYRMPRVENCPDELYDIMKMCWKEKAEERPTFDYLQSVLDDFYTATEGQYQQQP
Chain of CDC42BPA (human) (Q5VT25 whole entry, looked up): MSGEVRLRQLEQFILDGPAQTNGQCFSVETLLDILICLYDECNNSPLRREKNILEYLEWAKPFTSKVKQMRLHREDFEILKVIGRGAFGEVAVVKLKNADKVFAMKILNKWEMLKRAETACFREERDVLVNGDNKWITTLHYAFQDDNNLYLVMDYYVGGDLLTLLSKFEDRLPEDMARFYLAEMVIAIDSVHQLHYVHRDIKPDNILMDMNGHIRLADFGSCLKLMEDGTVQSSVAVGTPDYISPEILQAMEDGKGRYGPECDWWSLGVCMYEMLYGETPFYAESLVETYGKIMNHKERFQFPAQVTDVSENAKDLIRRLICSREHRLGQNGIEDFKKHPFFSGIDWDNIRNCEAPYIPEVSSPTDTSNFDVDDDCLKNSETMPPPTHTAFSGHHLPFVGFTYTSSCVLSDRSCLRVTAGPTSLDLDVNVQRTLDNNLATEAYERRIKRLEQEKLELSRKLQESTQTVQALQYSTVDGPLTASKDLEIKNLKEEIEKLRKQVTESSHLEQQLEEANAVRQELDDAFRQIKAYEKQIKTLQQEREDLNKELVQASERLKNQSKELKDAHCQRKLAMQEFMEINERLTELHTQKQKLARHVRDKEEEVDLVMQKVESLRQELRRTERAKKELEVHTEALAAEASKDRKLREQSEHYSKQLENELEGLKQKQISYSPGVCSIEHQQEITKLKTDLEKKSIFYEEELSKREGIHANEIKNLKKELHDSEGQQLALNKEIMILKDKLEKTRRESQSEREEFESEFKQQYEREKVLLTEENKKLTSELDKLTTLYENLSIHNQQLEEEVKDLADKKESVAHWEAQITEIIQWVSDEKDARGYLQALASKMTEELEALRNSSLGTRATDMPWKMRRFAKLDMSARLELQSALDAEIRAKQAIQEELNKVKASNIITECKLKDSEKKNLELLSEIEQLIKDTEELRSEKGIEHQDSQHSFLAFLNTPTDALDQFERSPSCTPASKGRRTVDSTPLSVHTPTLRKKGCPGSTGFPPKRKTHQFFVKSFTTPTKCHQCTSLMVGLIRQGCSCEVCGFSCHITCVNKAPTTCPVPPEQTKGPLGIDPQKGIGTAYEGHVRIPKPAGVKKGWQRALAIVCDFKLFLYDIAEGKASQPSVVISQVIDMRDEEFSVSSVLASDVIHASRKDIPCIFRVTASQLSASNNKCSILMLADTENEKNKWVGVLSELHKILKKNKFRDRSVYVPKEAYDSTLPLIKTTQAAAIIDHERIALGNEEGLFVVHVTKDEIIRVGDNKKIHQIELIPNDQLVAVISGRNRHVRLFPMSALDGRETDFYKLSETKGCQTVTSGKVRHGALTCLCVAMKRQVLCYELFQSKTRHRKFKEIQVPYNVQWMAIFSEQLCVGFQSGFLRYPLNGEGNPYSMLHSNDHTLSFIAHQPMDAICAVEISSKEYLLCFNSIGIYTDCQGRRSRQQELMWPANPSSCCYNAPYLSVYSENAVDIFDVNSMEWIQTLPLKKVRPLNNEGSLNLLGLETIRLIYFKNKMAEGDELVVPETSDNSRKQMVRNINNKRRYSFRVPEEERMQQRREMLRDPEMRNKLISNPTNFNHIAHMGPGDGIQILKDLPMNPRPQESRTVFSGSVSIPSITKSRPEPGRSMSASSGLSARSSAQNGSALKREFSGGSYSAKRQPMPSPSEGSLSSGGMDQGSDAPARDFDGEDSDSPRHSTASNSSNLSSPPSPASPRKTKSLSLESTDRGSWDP
Chain of MARK4 (human) (Q96L34 whole entry, looked up): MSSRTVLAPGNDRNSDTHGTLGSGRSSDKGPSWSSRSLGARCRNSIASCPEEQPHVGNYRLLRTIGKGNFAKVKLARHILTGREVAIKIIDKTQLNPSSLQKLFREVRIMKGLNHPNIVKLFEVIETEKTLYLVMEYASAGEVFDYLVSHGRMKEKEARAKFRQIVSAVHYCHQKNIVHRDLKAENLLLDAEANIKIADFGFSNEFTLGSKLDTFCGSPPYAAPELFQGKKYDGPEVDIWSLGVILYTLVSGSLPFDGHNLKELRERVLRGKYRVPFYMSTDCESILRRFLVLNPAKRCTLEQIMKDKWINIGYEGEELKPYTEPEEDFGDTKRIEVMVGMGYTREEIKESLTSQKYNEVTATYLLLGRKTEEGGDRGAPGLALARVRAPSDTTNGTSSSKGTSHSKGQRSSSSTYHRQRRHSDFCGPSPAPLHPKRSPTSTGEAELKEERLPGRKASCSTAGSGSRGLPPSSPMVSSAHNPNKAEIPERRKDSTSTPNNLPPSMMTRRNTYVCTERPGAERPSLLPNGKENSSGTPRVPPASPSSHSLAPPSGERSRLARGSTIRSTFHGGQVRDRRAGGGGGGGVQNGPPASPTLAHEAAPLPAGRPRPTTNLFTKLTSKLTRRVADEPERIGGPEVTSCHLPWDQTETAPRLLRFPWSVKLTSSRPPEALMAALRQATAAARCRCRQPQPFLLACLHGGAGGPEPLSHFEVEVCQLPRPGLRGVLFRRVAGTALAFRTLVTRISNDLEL

inhibition ([1]; compound 0.02 µM): 3.2% | inhibition ([1]; compound 0.2 µM): 4.8% | inhibition ([2]; compound 0.02 µM): -4.1% | inhibition ([2]; compound 0.2 µM): -6.3% | inhibition ([3]; compound 0.02 µM): -2.3% | inhibition ([3]; compound 0.2 µM): -4.2% | inhibition ([4]; compound 0.02 µM): 1.3% | inhibition ([4]; compound 0.2 µM): 5.7% | inhibition ([5]; compound 0.02 µM): 7% | inhibition ([5]; compound 0.2 µM): 2% | inhibition ([6]; compound 0.02 µM): 0.2% | inhibition ([6]; compound 0.2 µM): 3.4% | inhibition ([7]; compound 0.02 µM): -7.8% | inhibition ([7]; compound 0.2 µM): 42% | inhibition ([8]; compound 0.02 µM): -3% | inhibition ([8]; compound 0.2 µM): 0% | inhibition ([9]; compound 0.02 µM): 19.6% | inhibition ([9]; compound 0.2 µM): 80.9% | inhibition ([10]; compound 0.02 µM): 5.4% | inhibition ([10]; compound 0.2 µM): 9.1% | inhibition ([11]; compound 0.02 µM): -4.2% | inhibition ([11]; compound 0.2 µM): 0.8% | inhibition ([12]; compound 0.02 µM): -2.3% | inhibition ([12]; compound 0.2 µM): 0.3% | inhibition ([13]; compound 0.02 µM): -3.6% | inhibition ([13]; compound 0.2 µM): 1% | inhibition ([14]; compound 0.02 µM): -1.6% | inhibition ([14]; compound 0.2 µM): 0.7% | inhibition ([15]; compound 0.02 µM): 8.4% | inhibition ([15]; compound 0.2 µM): 2.6% | inhibition ([16]; compound 0.02 µM): -10.8% | inhibition ([16]; compound 0.2 µM): -6.6% | inhibition ([17]; compound 0.02 µM): -2.3% | inhibition ([17]; compound 0.2 µM): -2.6% | inhibition ([18]; compound 0.02 µM): -4.7% | inhibition ([18]; compound 0.2 µM): -5.1% | inhibition ([19]; compound 0.02 µM): 13.3% | inhibition ([19]; compound 0.2 µM): 11% | inhibition ([20]; compound 0.02 µM): -1.1% | inhibition ([20]; compound 0.2 µM): 10.8% | inhibition ([21]; compound 0.02 µM): -4.3% | inhibition ([21]; compound 0.2 µM): -3.9% | inhibition ([22]; compound 0.02 µM): -4.3% | inhibition ([22]; compound 0.2 µM): 6.6% | inhibition ([23]; compound 0.02 µM): -6.9% | inhibition ([23]; compound 0.2 µM): -6.6% | inhibition ([24]; compound 0.02 µM): 16.6% and 20.8% | inhibition ([24]; compound 0.2 µM): 62.4% and 63.7% | inhibition ([25]; compound 0.02 µM): 5.5% | inhibition ([25]; compound 0.2 µM): 2% | inhibition ([26]; compound 0.2 µM): 83% | inhibition ([27]; compound 0.02 µM): 8.8% | inhibition ([27]; compound 0.2 µM): 39.2% | inhibition ([28]; compound 0.02 µM): -1.5% | inhibition ([28]; compound 0.2 µM): -7.3% | inhibition ([29]; compound 0.02 µM): -1% | inhibition ([29]; compound 0.2 µM): -1.6% | inhibition ([30]; compound 0.02 µM): 1.8% | inhibition ([30]; compound 0.2 µM): 5.1% | inhibition ([31]; compound 0.02 µM): -1.9% | inhibition ([31]; compound 0.2 µM): -4.2% | inhibition ([32]; compound 0.02 µM): -1.5% | inhibition ([32]; compound 0.2 µM): -3.3% | inhibition ([33]; compound 0.02 µM): 2.9% | inhibition ([33]; compound 0.2 µM): 4.7%
Compound: Cc1ccc(Nc2nccc(N(C)c3ccc4c(C)n(C)nc4c3)n2)cc1S(N)(=O)=O

inhibition ([1]; compound 0.2 µM): 6% | inhibition ([1]; compound 4.0 µM): 45.2% | inhibition ([2]; compound 0.2 µM): 76.3% | inhibition ([2]; compound 4.0 µM): 100% | inhibition ([3]; compound 0.2 µM): -1.2% | inhibition ([3]; compound 4.0 µM): 26% | inhibition ([4]; compound 0.2 µM): 46.8% | inhibition ([4]; compound 4.0 µM): 94.5% | inhibition ([5]; compound 0.2 µM): 93.3% | inhibition ([5]; compound 4.0 µM): 101% | inhibition ([6]; compound 0.2 µM): 47.8% | inhibition ([6]; compound 4.0 µM): 95.7% | inhibition ([34]; compound 0.2 µM): 88.2% | inhibition ([34]; compound 4.0 µM): 101% | inhibition ([7]; compound 0.2 µM): 95.6% | inhibition ([7]; compound 4.0 µM): 101% | inhibition ([8]; compound 0.2 µM): 15% | inhibition ([8]; compound 4.0 µM): 76.1% | inhibition ([9]; compound 0.2 µM): 71.8% | inhibition ([9]; compound 4.0 µM): 96.6% | inhibition ([11]; compound 0.2 µM): -0.2% | inhibition ([11]; compound 4.0 µM): 19.2% | inhibition ([12]; compound 0.2 µM): 2.2% | inhibition ([12]; compound 4.0 µM): 29.1% | inhibition ([13]; compound 0.2 µM): -2.8% | inhibition ([13]; compound 4.0 µM): 1.8% | inhibition ([14]; compound 0.2 µM): 94.8% | inhibition ([14]; compound 4.0 µM): 101% | inhibition ([15]; compound 0.2 µM): -0.9% | inhibition ([15]; compound 4.0 µM): 33.9% | inhibition ([16]; compound 0.2 µM): -7.5% | inhibition ([16]; compound 4.0 µM): -1.7% | inhibition ([17]; compound 0.2 µM): 9.3% | inhibition ([17]; compound 4.0 µM): 65.5% | inhibition ([18]; compound 0.2 µM): 92.8% | inhibition ([18]; compound 4.0 µM): 103% | inhibition ([19]; compound 0.2 µM): 5.5% | inhibition ([19]; compound 4.0 µM): -26.5% | inhibition ([20]; compound 0.2 µM): -0.2% | inhibition ([20]; compound 4.0 µM): 27.7% | inhibition ([21]; compound 0.2 µM): 35.6% | inhibition ([21]; compound 4.0 µM): 90.4% | inhibition ([23]; compound 0.2 µM): -4.4% | inhibition ([23]; compound 4.0 µM): 28.9% | inhibition ([24]; compound 0.2 µM): 67.3% and 70.3% | inhibition ([24]; compound 4.0 µM): 98.3% and 99.7% | inhibition ([25]; compound 0.2 µM): 1.8% | inhibition ([25]; compound 4.0 µM): 7.7% | inhibition ([26]; compound 0.2 µM): 76.7% | inhibition ([26]; compound 4.0 µM): 100% | inhibition ([27]; compound 0.2 µM): 62.1% | inhibition ([28]; compound 0.2 µM): -0.1% | inhibition ([28]; compound 4.0 µM): 48.3% | inhibition ([29]; compound 0.2 µM): 34.5% | inhibition ([29]; compound 4.0 µM): 89% | inhibition ([30]; compound 0.2 µM): 3.3% | inhibition ([30]; compound 4.0 µM): 21.8% | inhibition ([31]; compound 0.2 µM): 51.4% | inhibition ([31]; compound 4.0 µM): 95.7% | inhibition ([32]; compound 0.2 µM): 0.9% | inhibition ([32]; compound 4.0 µM): 4.9% | inhibition ([33]; compound 0.2 µM): 2.7% | inhibition ([33]; compound 4.0 µM): 4%
Compound: CCN(CC)CCNC(=O)c1c(C)[nH]c(/C=C2\C(=O)Nc3ccc(F)cc32)c1C
